Test results: US8597649B2, “Antagonist antibodies directed against calcitonin gene-related peptide and methods using same” (Labrys Biologics, Inc., priority 2005, dated 2013)

Experiments:
[1] = test system: middle meningeal artery (MMA) dilation evoked by electrical field stimulation; experiment: Dural artery (closed cranial window) assay; assay type: in vivo; conditions: rat, i.v.
Method: Closed Cranial Window Model: The purpose of this experiment was to determine the acute effect of anti-CGRP antagonist antibodies and compare it with the acute effect of the CGRP receptor antagonist BIBN4096BS. Experiments were carried out as previously described (Williamson et al., Cephalalgia 17(4):518-24 (1997)) with the following modifications. Sprague Dawley rats (300-400 g) were anesthetized with 70 mg/kg i.p. pentobarbital. Anesthesia was maintained with 20 mg/kg/hr i.v. pentobarbital. Rats were cannulated through the jugular vein for delivery of all drugs. Blood pressure was monitored with a probe (mikro-tip catheter, Millar Instruments) threaded through the femoral artery into the abdominal aorta. The rats were tracheotomized and breathing rate was maintained at 75 breaths per minute at a volume of 3.5 mL. After fixating the head in a stereotactic instrument and removing the scalp, a 2×6 mm window in the left parietal area just lateral to the sagittal suture was made by thinning the bone with a dental drill. […] Lateral to the electrode window another window of 5×6 mm was created and filled with heavy mineral oil through which the diameter of a branch of the middle meningeal artery (MMA) was continuously monitored with a CCD camera and a video dimension analyzer (Living Systems). […] All data was recorded using chart software (ADInstruments). […]

[2] = test system: skin vasodilatation induced by stimulation of rat saphenous nerve; experiment: skin vasodilatation induced by stimulation of rat saphenous nerve; assay type: in vivo; conditions: 400 nmol/kg i.v., 3-5 min before stimulation, compared to the control (FIG. 2A, 2B)
Method: To test antagonist activity of anti-CGRP antibodies, effect of the antibodies on skin vasodilatation by stimulation of rat saphenous nerve was tested using a rat model described previously. Escott et al., Br. J. Pharmacol. 110:772-776, 1993. In this rat model, electrical stimulation of saphenous nerve induces release of CGRP from nerve endings, resulting in an increase in skin blood flow. Blood flow in the foot skin of male Sprague Dwaley rats (170-300 g, from Charles River Hollister) was measured after saphenous nerve stimulation. Rats were maintained under anesthesia with 2% isoflurane. Bretylium tosylate (30 mg/kg, administered i.v.) was given at the beginning of the experiment to minimize vasoconstriction due to the concomitant stimulation of sympathetic fibers of the saphenous nerve. Body temperature was maintained at 37° C. by the use of a rectal probe thermostatically connected to a temperature controlled heating pad. […]
For experiments shown in FIGS. […] Skin blood flow, measured as blood cell flux, was monitored with a laser Doppler flow meter. […]
For experiments shown in FIGS. 4A and 4B, saphenous nerve was exposed surgically before antibody administration. […] Skin blood flow, measured as blood cell flux, was monitored with a laser Doppler flow meter. […]

Compound | time after dosing by which the effect has completely disappeared ([1]; 300 μg/kg BIBN4096BS (FIG. 9)) | block of MMA dilation evoked by electrical field stimulation ([1]; acute, 10 mg/kg mu7E9, 300 μg/kg BIBN4096BS (FIG. 9)) | blood flow increase stimulated by applying electronic pulses on saphenous nerve [2]
NCCCC[C@H](NC(=O)[C@@H](Cc1cc(Br)c(O)c(Br)c1)NC(=O)N1CCC(N2Cc3ccccc3NC2=O)CC1)C(=O)N1CCN(c2ccncc2)CC1 [BIBN4096BS] | ≤ 90 min | blocks | –
CGRP 8-37: Positive control compound CGRP 8-37 (vasodilatation antagonist) (VTHRLAGLLSRSGGVVKNNFVPTNVGSKAF) [reference compound] | – | – | inhibited
